Source: patent US20060079552A1, “1-[2-(4-benzyl-4-hydroxy-piperidin-1-yl)-ethyl]-3-(2-methyl-quinolin-4-yl)-urea salt” (priority 2004, published 2006)
≈ marks a conversion by molar mass, not a printed value. Where a name gives a salt, the structure may show the parent alone. One block for each compound: values may come before it.

Key:
urotensin II receptor = molecular target: T1, urotensin II receptor (Homo sapiens, UniProt Q9UKP6); details: Clozel et al., J. Pharmcol. Exp. Ther. 2004, 311, 204-212; cited from earlier work
T1 sequence (Q9UKP6 1-389): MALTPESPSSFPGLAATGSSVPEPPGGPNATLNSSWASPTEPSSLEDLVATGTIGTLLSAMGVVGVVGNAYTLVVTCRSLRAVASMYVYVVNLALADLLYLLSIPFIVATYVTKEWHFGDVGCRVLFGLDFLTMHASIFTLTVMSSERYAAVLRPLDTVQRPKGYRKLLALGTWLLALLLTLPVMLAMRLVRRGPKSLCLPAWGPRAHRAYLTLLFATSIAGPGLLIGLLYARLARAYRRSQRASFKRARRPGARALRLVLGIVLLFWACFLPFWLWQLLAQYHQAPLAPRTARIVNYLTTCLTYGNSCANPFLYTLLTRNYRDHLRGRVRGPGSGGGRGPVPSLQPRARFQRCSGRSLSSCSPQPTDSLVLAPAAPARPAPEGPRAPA

[1] = Pharmacokinetic assessment after oral (gavage) administration in rats; assay type: in vivo, male Wistar rats; details: for mean exposure, area under the curve (AUC0-inf.): oral (gavage) 10 mg per kg, male Wistar rats, blood samples over 24 h
Description: The pharmacokinetic parameters after oral (gavage) administration of 10 mg per kg of 1-[2-(4-benzyl-4-hydroxy-piperidin-1-yl )-ethyl]-3-(2-methyl-quinolin-4-yl )-urea given as free base or sulfate salt have been determined in male Wistar rats. Blood samples were taken over a time period of 24 h after dosing and analysed with a specific and sensitive liquid chromatography-mass-spectrometry (LC-MS/MS) method. Pharmacokinetic parameters were calculated using a non-compartmental method. The mean exposure of 1-[2-(4-benzyl-4-hydroxy-piperidin-1-yl)-ethyl]-3-(2-methyl-quinolin-4-yl)-urea, expressed as area under the curve (AUC0-inf.), after administration of compound I as free base was 194 ng*h/mL. The mean exposure of 1-[2-(4-benzyl-4-hydroxy-piperidin-1-yl )-ethyl]-3-(2-methyl-quinolin-4-yl )-urea expressed as area under the curve (AUC0-inf.), after administration of the compound described in Example 1 was 396 ng*h/mL.

[2] = Stress test / behaviour at higher temperature and higher humidity; assay type: physicochemical
Description: NMR spectra were recorded on a Varian Mercury 300VX NMR Spectrometer. The spectra are referenced to tetramethylsilane as external standard. X-ray diffraction patterns (XRD) were recorded on a Bruker D5000, using a CU-Kalpha (1.5418 Å) source, a 40 kV-30 mA generator, in a range of 3 et 40° (2theta). Stress test studies were done by exposing samples in open and closed glass bottles to the following conditions: 60° C./80% RH (8 weeks) and 80° C./RH not controlled (48 h).

[3] = Solubility in water and aqueous phosphate buffer pH 7; assay type: physicochemical; details: for Solubility Buffer pH 7 (phosphate, 100 mM): aqueous phosphate buffer pH 7, 100 mM
Description: Solubility was measured in water and aqueous phosphate buffer (pH=7, 100 mM). Results are expressed as mg dissolved compound per mL solvent.

[4] = Hygroscopicity, static method (European Pharmacopoeia Technical Guide), weight increase in humidity cabinet; assay type: physicochemical; details: for Increase in weight (Δm): after exposure to 79% RH for 24 h, RT
Description: Hygroscopicity was evaluated using the static method according to European Pharmacopoeia Technical Guide. Weight increase of the compound was observed when stored in a humidity cabinet at RT/79% RH for 24 h.

mean exposure, area under the curve (AUC0-inf.) ([1]; listed as compound I as free base): 194 ng·h/mL
bioavailability after oral dosing ([1]; rat, oral dosing): low bioavailability
agglomeration [2]: agglomerates to a substance cake
Solubility Buffer pH 7 (phosphate, 100 mM) [3]: 0.31 mg/mL
Solubility water ([3]; water): 0.8 mg/mL (≈ 1910 µM)
solubility in water at pH 7 (in words) ([3]; water at pH 7): slightly soluble
hygroscopicity (in words) [4]: hygroscopic
Increase in weight (Δm) ([4]; listed as Compound I as free base): 8%
SMILES: Cc1cc(NC(=O)NCCN2CCC(O)(Cc3ccccc3)CC2)c2ccccc2n1 [Compound I, 1-[2-(4-Benzyl-4-hydroxy-piperidin-1-yl)-ethyl]-3-(2-methyl-quinolin4-yl)-urea]
urotensin II receptor antagonism (urotensin II receptor): potent urotensin II receptor antagonist
colour stability [2]: its colour changes at higher temperature and higher humidity

mean exposure, area under the curve (AUC0-inf.) ([1]; sulfate): 396 ng·h/mL
SMILES: Cc1cc(NC(=O)NCCN2CCC(O)(Cc3ccccc3)CC2)c2ccccc2n1 [Example 1, 1-[2-(4-Benzyl-4-hydroxy-piperidin-1-yl)-ethyl]-3-(2-methyl-quinolin-4-yl)-urea sulfate]

Solubility Buffer pH 7 (phosphate, 100 mM) ([3]; sulfate): 27 mg/mL
Solubility water ([3]; water, sulfate): 11.3 mg/mL
Increase in weight (Δm) ([4]; sulfate): 4%
SMILES: Cc1cc(NC(=O)NCCN2CCC(O)(Cc3ccccc3)CC2)c2ccccc2n1 [Example 2, 1-[2-(4-Benzyl-4-hydroxy-piperidin-1-yl)-ethyl]-3-(2-methyl-quinolin-4-yl)-urea sulfate]

Solubility water ([3]; water, malate): >101 mg/mL
SMILES: Cc1cc(NC(=O)NCCN2CCC(O)(Cc3ccccc3)CC2)c2ccccc2n1 [Example 5, 1-[2-(4-Benzyl-4-hydroxy-piperidin-1-yl)-ethyl]-3-(2-methyl-quinolin-4-yl)-urea malate]

solubility ([3]; water): 17.8 mg/mL
SMILES: Cc1cc(NC(=O)NCCN2CCC(O)(Cc3ccccc3)CC2)c2ccccc2n1.O=C(O)CC(O)(CC(=O)O)C(=O)O [Example 6, 1-[2-(4-Benzyl-4-hydroxy-piperidin-1-yl)-ethyl]-3-(2-methyl-quinolin-4-yl)-urea citrate]
